# Several values for one entry are separate records, joined by “and”; a condition that tells them apart may be missing. Identical values can stand only once.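 48-hour exposure; five concentrations; linearly interpolated endpoints. Abbreviation: GI50, concentration required for 50% inhibition of growth. TGI denotes the concentration required for complete inhibition of growth.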
# How the values were obtained:
# Assay in all cases: NCI tumour cell line growth inhibition, 48 h
# M14 melanoma = tested on: M14 melanoma
# SK-MEL-28 melanoma = tested on: SK-MEL-28 melanoma
# CCRF-CEM leukemia = tested on: CCRF-CEM leukemia
# ACHN renal = tested on: ACHN renal
# U251 CNS = tested on: U251 CNS
# CAKI-1 renal = tested on: CAKI-1 renal
# NCI-H23 lung = tested on: NCI-H23 lung
# LOX IMVI melanoma = tested on: LOX IMVI melanoma
# HCT-116 colon = tested on: HCT-116 colon
# NCI-H226 lung = tested on: NCI-H226 lung
SMILES,TGI (M14 melanoma),TGI (SK-MEL-28 melanoma),TGI (CCRF-CEM leukemia),TGI (ACHN renal),TGI (U251 CNS),TGI (CAKI-1 renal),TGI (NCI-H23 lung),TGI (LOX IMVI melanoma),TGI (HCT-116 colon),TGI (NCI-H226 lung),GI50 (M14 melanoma),GI50 (SK-MEL-28 melanoma),GI50 (CCRF-CEM leukemia),GI50 (ACHN renal),GI50 (U251 CNS),GI50 (CAKI-1 renal),GI50 (NCI-H23 lung),GI50 (LOX IMVI melanoma),GI50 (HCT-116 colon),GI50 (NCI-H226 lung)
NC1=NN(c2ccccc2)C(=O)C1/C(=N\NC(=O)c1cc2ccccc2cc1O)C(=O)Nc1ccc(Cl)c(Cl)c1 (configuration not stated),72.5 µM,> 100 µM,57.7 µM,> 100 µM,> 100 µM,> 100 µM,63.5 µM,> 100 µM,> 100 µM,> 100 µM,–,–,–,–,–,–,–,–,–,–
c1ccc(OCC[P+](c2ccccc2)(c2ccccc2)c2ccccc2)cc1,9.59 µM,9.81 µM,> 41.4 µM,> 81.9 µM,13 µM,> 100 µM,6.7 µM,9.68 µM,11.3 µM,12.1 µM,1.57 µM,1.24 µM,0.981 µM,8.47 µM,0.99 µM,25.4 µM,0.938 µM,0.926 µM,0.491 µM,2.03 µM
COC(=O)/C(=C1\OC(=O)C(c2ccc(Cl)cc2)=C1O)c1ccc(Cl)cc1,97.5 µM,> 100 µM,> 100 µM,79.2 µM,> 100 µM,57.9 µM,40.3 µM,64.4 µM,50.4 µM,58.5 µM,–,–,–,–,–,–,–,–,–,–
N/C(=N/O)NOCCC(N)C(=O)O (configuration not stated),> 100 µM,> 100 µM,> 100 µM,> 100 µM,> 100 µM,> 100 µM,> 100 µM,> 100 µM,> 100 µM,> 100 µM,> 100 µM,> 100 µM,> 100 µM,> 100 µM,> 100 µM,> 100 µM,> 100 µM,> 100 µM,> 100 µM,> 100 µM
Cn1cc(-c2[nH]c3cc(NC(=O)[C@H](N)C4CCCCC4)cc4c3c2C=NNC4=O)cn1,0.493 µM and > 4.31 µM,21.9 µM and > 10 µM,0.507 µM and > 3.89 µM,8.35 µM and > 10 µM,12.9 µM and > 10 µM,10.5 µM and > 7.91 µM,9.52 µM and > 10 µM,3.52 µM and 1.66 µM,10.9 µM and > 10 µM,17.8 µM and > 10 µM,0.163 µM and 0.234 µM,7.99 µM,0.0345 µM and 0.056 µM,0.419 µM and 1.06 µM,0.418 µM and 0.415 µM,1.8 µM and 0.705 µM,0.267 µM and 0.197 µM,0.305 µM and 0.268 µM,0.399 µM and 0.561 µM,0.963 µM and 0.398 µM
CC(=O)OCc1cc[c]([Hg][Cl])o1,13 µM,7.84 µM,8.85 µM,3.44 µM,5.02 µM,23.5 µM,29.7 µM,4.96 µM,24.3 µM,45.5 µM,3.11 µM,2.73 µM,2.08 µM,1.81 µM,2 µM,10.4 µM,12.1 µM,1.96 µM,10.1 µM,19.4 µM
Cc1ccccc1N=C(c1ccccc1)C1C(=O)c2ccccc2C1=O,13.2 µM,> 100 µM,62.3 µM,62.4 µM,> 100 µM,> 100 µM,> 100 µM,71.6 µM,16.2 µM,57.5 µM,2.67 µM,24.9 µM,12.8 µM,19 µM,24.6 µM,21 µM,15.8 µM,21.7 µM,2.34 µM,19.4 µM
C/C(COc1ccccc1)=N\NC(N)=S,> 100 µM,> 100 µM,> 100 µM,> 100 µM,> 100 µM,> 100 µM,> 100 µM,> 100 µM,> 100 µM,> 100 µM,–,–,–,–,–,–,–,–,–,–
COc1ccc(C2CC(=O)Nc3c2c(C)nn3-c2nc3ccccc3[nH]2)cc1OC (configuration not stated),20.4 µM,> 100 µM,> 96.3 µM,34.1 µM,19.7 µM,24.3 µM,22.1 µM,19.1 µM,14.9 µM,14.1 µM,3.45 µM,4.9 µM,1.62 µM,4.45 µM,4.58 µM,3.83 µM,3.66 µM,4.51 µM,3.31 µM,3.31 µM
CN1CCN(CCCn2c3c(sc4ncccc43)c(=O)n3nnc(-c4ccccc4)c23)CC1,9.5 µM,32.2 µM,4.08 µM,3.04 µM,3.3 µM,3.19 µM,4.38 µM,2.75 µM,3.31 µM,31.9 µM,4.67 µM,18 µM,1.57 µM,1.54 µM,1.86 µM,1.59 µM,1.97 µM,1.39 µM,1.72 µM,15.1 µM
O=C(C#Cc1ccccc1)N1CCCCC1,> 100 µM,> 100 µM,> 100 µM,> 100 µM,> 100 µM,> 100 µM,> 100 µM,> 100 µM,67.5 µM,> 100 µM,–,–,–,–,–,–,–,–,–,–
Cn1cc(-c2nc(-c3c[nH]c4ccccc34)cs2)c2cccnc21,> 54.2 µM,> 100 µM,> 100 µM,> 100 µM,> 53.9 µM,> 100 µM,> 100 µM,> 100 µM,> 47.2 µM,> 100 µM,0.234 µM,0.71 µM,0.353 µM,0.527 µM,0.432 µM,0.273 µM,1.04 µM,0.628 µM,0.364 µM,0.578 µM
O=C(Nc1ccc(-c2cn3ccccc3n2)cc1)c1cc(Br)ccc1O,> 100 µM,> 100 µM,> 100 µM,> 100 µM,> 100 µM,> 100 µM,> 100 µM,> 100 µM,> 100 µM,> 100 µM,–,–,–,–,–,–,–,–,–,–
OCC1OC(n2cnc3cc(Cl)c(Cl)cc32)C(O)C1O (configuration not stated),32.5 µM,> 100 µM,> 100 µM,34.6 µM,37.5 µM,47.8 µM,42.3 µM,29 µM,44.2 µM,35.3 µM,9.36 µM,29.3 µM,38.8 µM,12.7 µM,13.8 µM,14.2 µM,18.8 µM,12.1 µM,18 µM,8.32 µM
Nc1[nH]c(=S)[nH]c(=O)c1N=Nc1c(Br)cc(S(N)(=O)=O)cc1Br,> 100 µM,> 100 µM,> 100 µM,> 100 µM,> 100 µM,> 100 µM,> 100 µM,> 100 µM,> 100 µM,> 100 µM,–,–,–,–,–,–,–,–,–,–
c1ccc2c(c1)CCCc1nnc3nc4ccccc4n3c1-2,25.2 µM,> 100 µM,> 100 µM,> 100 µM,24.1 µM,> 100 µM,> 100 µM,10.9 µM,13.8 µM,> 100 µM,3.13 µM,9.43 µM,3.68 µM,3.65 µM,3.29 µM,5.32 µM,7.31 µM,2.61 µM,3.35 µM,6.39 µM
C=C1[C@H](O)C[C@@H](C(C)C(O)CC=C(C)C)[C@@H](O)[C@@H]2C(C)=CC[C@@H]12 (some centres not stated),> 100 µM,> 100 µM,> 100 µM,> 100 µM,> 100 µM,> 100 µM,> 100 µM,> 100 µM,> 100 µM,> 100 µM,> 100 µM,> 100 µM,55.6 µM,> 100 µM,> 100 µM,> 100 µM,> 100 µM,> 100 µM,> 100 µM,> 100 µM
CN(N=O)N1C(=O)SCC(c2ccccc2)(c2ccccc2)C1=O,> 100 µM,> 100 µM,> 100 µM,> 100 µM,> 100 µM,> 100 µM,> 100 µM,> 100 µM,> 100 µM,52.7 µM,–,–,–,–,–,–,–,–,–,–
Cc1cc(S(=O)(=O)Nc2nc3ccccc3s2)c(SCc2ccccc2)cc1Cl,36.6 µM,52.7 µM,51.3 µM,27.8 µM,26.4 µM,17.6 µM,26.7 µM,24.5 µM,28.4 µM,45.9 µM,19.2 µM,21.9 µM,13.1 µM,14 µM,13.6 µM,4.12 µM,13.8 µM,12.1 µM,15.1 µM,19.3 µM
CC(C)(C)c1cc([Si](C)(C)C)c(C#N)c([Si](C)(C)C)c1,> 100 µM,> 100 µM,> 100 µM,> 100 µM,> 100 µM,> 100 µM,> 100 µM,> 100 µM,> 100 µM,> 100 µM,–,–,–,–,–,–,–,–,–,–
COc1ccc2c(c1)C(=O)CC(C(N)=O)C2 (configuration not stated),> 100 µM,> 100 µM,> 100 µM,> 100 µM,> 100 µM,> 100 µM,> 100 µM,> 100 µM,> 100 µM,> 100 µM,–,–,–,–,–,–,–,–,–,–
Cc1c(-c2c(F)cc(C(N)=O)c3[nH]c4c(c23)CC[C@H](C(C)(C)O)C4)cccc1-n1c(=O)c2cccc(F)c2n(C)c1=O,66.1 µM,> 100 µM,> 100 µM,> 100 µM,> 100 µM,> 100 µM,> 100 µM,> 100 µM,> 100 µM,26.4 µM,3.69 µM,4.59 µM,4.52 µM,2.8 µM,6.07 µM,2.08 µM,2.79 µM,3.13 µM,2.66 µM,3.84 µM
Cc1cc(C2CC(O)C(CO)O2)c(Br)cc1Br (configuration not stated),> 100 µM,> 100 µM,> 100 µM,> 100 µM,> 100 µM,> 100 µM,> 100 µM,> 100 µM,> 100 µM,> 100 µM,> 100 µM,> 100 µM,> 100 µM,> 100 µM,> 100 µM,> 100 µM,> 100 µM,80.2 µM,> 100 µM,> 100 µM
O=C(O)[C@@H](Cc1ccccc1)NS(=O)(=O)c1ccc(-c2ccccc2)cc1,> 100 µM,> 100 µM,> 100 µM,> 100 µM,> 100 µM,> 100 µM,> 100 µM,> 100 µM,> 100 µM,> 100 µM,> 100 µM,> 100 µM,> 100 µM,> 100 µM,> 100 µM,> 100 µM,> 100 µM,> 100 µM,> 100 µM,> 100 µM
CCn1c(C)nc([N+](=O)[O-])c1Sc1ncc[nH]1,> 100 µM,> 100 µM,58.7 µM,> 100 µM,> 100 µM,> 100 µM,99.6 µM,42.2 µM,> 100 µM,> 100 µM,–,–,–,–,–,–,–,–,–,–
Cc1ccc2c(c1)n([O-])c(C(F)(F)F)c(C(=O)c1ccco1)[n+]2=O,6.55 µM,23.6 µM,0.859 µM,1 µM,5.15 µM,0.448 µM,1.52 µM,0.93 µM,12.7 µM,2.09 µM,1.3 µM,4.16 µM,0.0743 µM,0.217 µM,0.632 µM,0.0845 µM,0.433 µM,0.176 µM,0.994 µM,0.755 µM
Clc1cc2ns[s+]c2cc1Cl,> 100 µM,> 100 µM,> 100 µM,> 100 µM,> 100 µM,> 100 µM,> 100 µM,> 100 µM,> 100 µM,> 100 µM,–,–,–,–,–,–,–,–,–,–
O=C(NNC(=O)/C(=C/c1cccc([N+](=O)[O-])c1)NC(=O)c1ccccc1)Nc1ccc(Cl)cc1,26.9 µM,30.8 µM,31.2 µM,31.8 µM,28.4 µM,40.2 µM,30.3 µM,30.2 µM,26.2 µM,32.2 µM,–,–,–,–,–,–,–,–,–,–
Nc1cc2c3ccccc3ccc2c2ccccc12,> 100 µM,> 100 µM,> 100 µM,> 100 µM,> 100 µM,> 100 µM,> 100 µM,> 100 µM,> 100 µM,> 100 µM,> 100 µM,> 100 µM,8 µM,> 100 µM,21.4 µM,> 100 µM,> 100 µM,9.13 µM,13.4 µM,> 61.4 µM
Cc1cc(C(=O)NOCCO)c(Nc2ccc(I)cc2F)n(C)c1=O,2.89 µM,–,> 100 µM,> 100 µM,> 100 µM,> 100 µM,> 100 µM,> 100 µM,> 100 µM,> 100 µM,0.00159 µM and < 0.01 µM,0.00227 µM and < 0.01 µM,> 100 µM,–,> 10 µM and 2.81 µM,0.185 µM,0.0237 µM and 0.0131 µM,–,0.011 µM and 0.0164 µM,> 10 µM and 5.83 µM

# Reference: PubChem BioAssay (NCI)
